Experimental data: US5750578A, “Use of betulin and analogs thereof to treat herpesvirus infection” (priority 1997, dated 1998)
“Also recorded” adds a separate entry of the source.

What was measured:
SK-N-MC cells = assay: Cytotoxicity test and drug controls, SK-N-MC cells; assay type: cell-based, human; set-up: Betulin control (monolayer rating) / Acyclovir control (monolayer rating): key to the marks not given beside the values
HSV-1 [1] = assay: Cell protection test, HSV-1 in SK-N-MC cells; assay type: cell-based, herpes simplex virus type 1 (KOS, patent strain); details: duplicate wells, 72 hours
Method: (§1) Two different HSV-1 and HSV-2 strains were used: HSV-1 (KOS), HSV-2 (MS). Also, HSV-1 (patent strain) and HSV-2 (patent strain) were purchased from ATCC and propagated in HEp2 cell monolayers. Virus stocks were prepared by adsorbing 1 ml of virus suspension containing 1 ×10^5 virus particles for one hour in HEp2 cells at 37° C. in 5% carbon dioxide tension. This stock was incubated under similar conditions for 48 hours after adding 15 ml of MEM containing the usual supplements.
(§2) Infected cells were harvested and disrupted through three cycles of freezing and thawing. The contents in the flasks were pooled, and the supernatant virus particles were collected by centrifugation at 3000 rpm for 5 minutes. The virus suspension dispensed in 2.5 ml aliquot each and […] using both microtitration and plaque counting methods. HSV-1 and HSV-2 containing 5×10^4 PFU/ml and 5.25×10^4 PFU/ml respectively were stored at -80° C. until needed.
(§3) A plus 3 (+++) was given to the wells in which betulin solutions protected the cells without any cytopathic effect as compared to cell and betulin control.

HSV-2 [2] = assay: Cell protection test, HSV-2 in HEp2 cells; assay type: cell-based, herpes simplex virus type 2 (MS, patent strain); details: duplicate wells, 72 hours
Method: as §1, §2, §3

HSV-1 [3] = assay: Cell protection test, HSV-1 in HEp2 cells; assay type: cell-based, herpes simplex virus type 1 (KOS, patent strain); details: duplicate wells, 72 hours
Method: as §1, §2, §3

HEp2 cells = assay: Cytotoxicity test and drug controls, HEp2 cells; assay type: cell-based, human; set-up: Betulin control (monolayer rating) / Acyclovir control (monolayer rating): key to the marks not given beside the values
HSV-2 [4] = assay: Cell protection test, HSV-2 in Vero cells; assay type: cell-based, herpes simplex virus type 2 (MS, patent strain); details: acyclovir 25 mg; duplicate wells; 72 hours
Method: as §1, §2, §3

Vero cells = assay: Cytotoxicity test and drug controls, Vero cells; set-up: Betulin control (monolayer rating) / Acyclovir control (monolayer rating): key to the marks not given beside the values
Method: Human epithelial type 2 (HEp2), African green monkey kidney (Vero) and human neuroblastoma (SK-N-MC) cells were purchased from American Type Culture Collection (ATCC-Rockville, Md.). These cells were grown at 37° C. in the presence of 5% carbon dioxide tension in minimal essential medium (MEM-Eagle) containing 0.1 mM of nonessential amino acids, and Earl's BSS 90% supplemented with 5% Newborn Calf Serum (NCS) and 1% penicillin/streptomycine sulfate. For SK-N-MC cells, 1.0 mM sodium pyruvate, and 10% NCS was used. The stock cells were prepared and stored at -80° C. in 5% dimethyl sulfoxide (DMSO).
A betulin solution containing 0.5 mg of betulin/1000 ml of water was filtered using a […] pore size filter (Gelman) attached to a 35 ml volume syringe to remove bacteria and other larger organisms. This sterile sample was further diluted to 1:2, 1:4, and 1:8 using distilled, deionized sterile water.
The cytotoxic effect of betulin was observed by using a 24-well microtiter plate. Each well contained 1 ml of MEM with supplements containing 1200 HEp2, Vero or SK-N-MC cells. The plates were incubated for 48 hours at 37° C. in 5% carbon dioxide tension and followed by replacement of the medium with 1.0 ml of MEM with specific supplements.
A 1.0 ml of sterile betulin solution in duplicate at varying two-fold dilution were placed into labeled wells. No betulin solution was placed in the control wells containing a monolayer of cells. These microtiter plates were incubated at 37° C. and 5% carbon dioxide tension for 48 hours and rated as follows.
Similarly, a plus 2 (++) for 75% monolayer, a plus one (+) for 50% monolayer, and a plus minus (±) for 25% monolayer development. A minus rating means that most of the cells are abnormal, whereas a double minus (--) rating was given to wells containing all abnormal cells due to cytotoxic effect of betulin solution. Noncytotoxic dilutions and the highest dilution of betulin showing cytotoxicity, if any, were used in the protection tests. […]

HSV-1 [5] = assay: Cell protection test, HSV-1 in Vero cells; assay type: cell-based, herpes simplex virus type 1 (KOS, patent strain); details: duplicate wells, 72 hours
Method: as §1, §2, §3

HSV-2 [6] = assay: Cell protection test, HSV-2 in SK-N-MC cells; assay type: cell-based, herpes simplex virus type 2 (MS, patent strain); details: duplicate wells, 72 hours
Method: as §1, §2, §3

HSV-1 and HSV-2 = assay: Cell protection tests, overall, HSV-1 and HSV-2 in three cell lines; assay type: cell-based
Method: as §1, §2, §3

[7] = acyclovir 50 mg/l and two-fold serial dilution
[8] = betulin 0.5 mg/l and two-fold dilutions, 48 hours

Nc1nc2c(ncn2COCCO)c(=O)[nH]1 [Acyclovir, reference compound]
Acyclovir control (monolayer rating) (SK-N-MC cells): +++
Cytotoxic effect (SK-N-MC cells; [7]): no cytotoxic effect was observed
Effectiveness against HSV-1 in SK-N-MC cells (acyclovir) (HSV-1 [1]; acyclovir 25 mg): ++±
Effectiveness against HSV-2 in HEp2 cells (acyclovir) (HSV-2 [2]; acyclovir 25 mg): ++±
Effectiveness against HSV-1 in HEp2 cells (acyclovir) (HSV-1 [3]; acyclovir 25 mg [mg/l]): ++±
Acyclovir control (monolayer rating) (HEp2 cells): +++
Cytotoxic effect (HEp2 cells; [7]): no cytotoxic effect was observed
Effectiveness against HSV-2 in vero cells (acyclovir) (HSV-2 [4]): ++±
Acyclovir control (monolayer rating) (Vero cells): +++
Effectiveness against HSV-1 in vero cells (acyclovir) (HSV-1 [5]; acyclovir 25 mg): ++±
Effectiveness against HSV-2 in SK-N-MC cells (acyclovir) (HSV-2 [6]; acyclovir 25 mg): ++±

C=C(C)[C@@H]1CC[C@]2(CO)CC[C@]3(C)[C@H](CC[C@@H]4[C@@]5(C)CC[C@H](O)C(C)(C)[C@@H]5CC[C@]43C)[C@@H]12 [Betulin, lup-20(29)-ene-3β, 28-diol]
Cytotoxic effect (SK-N-MC cells; [8]): not toxic; also recorded: did not show any cytotoxic effect
Betulin control (monolayer rating) (SK-N-MC cells; control wells, highest concentration of betulin, Tables 5 and 6): +++
Effectiveness of betulin against HSV-1 in SK-N-MC cells (HSV-1 [1]; betulin 0.5 mg): ++±
Effectiveness in protecting indicator cell monolayers compared to acyclovir (HSV-1 and HSV-2; 0.5 mg/l betulin vs 25 mg/l ACV, three cell types): as effective as 25 mg/l of ACV
Spread of virus from the infected cells (HSV-1 and HSV-2; after 72 hours): did not spread from the infected cells
Effectiveness against HSV-2 compared to HSV-1 (HSV-1 and HSV-2; three different cell lines): slightly more effective in protecting all three different cell lines against HSV-2 strains than HSV-1 strains; also recorded: more effective against HSV-2 compared to HSV-1
Effectiveness of betulin against HSV-2 in HEp2 cells (HSV-2 [2]; betulin 0.25 mg): ++±
Effectiveness of betulin against HSV-1 in HEp2 cells (HSV-1 [3]; betulin 0.5 mg [mg/l]): ++±
Cytotoxic effect (HEp2 cells; [8]): not toxic; also recorded: did not show any cytotoxic effect
Betulin control (monolayer rating) (HEp2 cells; control wells, highest concentration of betulin, Tables 1 and 2): +++
Cytotoxic effect (Vero cells; [8]): not toxic; also recorded: did not show any cytotoxic effect
Betulin control (monolayer rating) (Vero cells; control wells, highest concentration of betulin, Tables 3 and 4): +++
Effectiveness of betulin against HSV-1 in vero cells (HSV-1 [5]; betulin 0.5 mg): ++±
Effectiveness of betulin against HSV-2 in SK-N-MC cells (HSV-2 [6]; betulin 0.5 mg): ++±
